Experimental findings from patent EP3494850B1, “WET WIPE WITH HYDROXYACETOPHENON” (Dr. Schumacher GmbH, priority 2017, dated 2019) are described below.

Structures are written as SMILES.

The test system of this series is Haut der Probanden. Nature of the series: Patch test for skin tolerance on 50 subjects. Format: in vivo. As to conditions: 48 h under occlusion on the back, read at 48 h and 72 h (erythema, scaling, fissures). An excerpt:
Zur Prüfung der Hautverträglichkeit des Tränkungsmittels, mit dem erfindungsgemäße Feuchttücher getränkt sind, wird ein Patch-Test an 50 Probanden durchgeführt. Mit einem Patch-Test können dermatologische und kosmetische Produkte auf ihr irritatives Potential untersucht werden. Bei den 50 ausgewählten Personen im Alter zwischen 18 und 69 Jahren handelte es sich um 28 Hautgesunde, 2 Atopiker, 2 Allergiker und 18 Personen mit empfindlicher Haut.
Für den Patch-Test wurde eine gemäß der in Tabelle 1 (Beispiel 1) angegebenen Rahmenrezeptur zusammengesetzte O/W-Emulsion für 48 Stunden unverdünnt auf den Rücken der Probanden mit Hilfe von quadratischen Kunststoffkammern (allergEAZE® clear Patch Test Chambers; SmartPractice®, Phoenix, AZ) unter Okklusion appliziert. Als Positivkontrolle diente der Modellschadstoff Natriumlaurylsulfat (SDS) in einer Konzentration von 1 % in Wasser. Als negative Kontrolle diente Wasser.
Die Bewertung der Testreaktionen erfolgte nach 48 Stunden (30 Minuten nach der Entfernung der Okklusion) sowie nach 72 Stunden, wobei die Haut der Probanden jeweils hinsichtlich Erythem, Schuppung und Fissuren untersucht wurde.

As to `CCCCCCCCCCCCOS(=O)(=O)O` [SDS, Natriumlaurylsulfat], the “Testpersonen mit Reaktion im Patch-Test” value was determined as 14 Testpersonen.
